Measurements published in ChEMBL document CHEMBL1201862, “PubChem BioAssay data set” (2004).
“And” between values parts separate entries of the source, which are not always exact repeats. Identical values can stand only once. The source made the active and inactive calls.

Key:
[1] = A375 melanoma cell viability loss, dose response, counter-screen for MITF inhibitor project, CellTiter-Glo luminescence, dry powder, set 4 (AID 624364); type: functional, cell-based; details: A-375;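 further: A375 melanoma cells are MITF independent so this is a counter screen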
[2] = A375 melanoma cell cytotoxicity, dose response, counter-screen for MITF inhibitor project, CellTiter-Glo luminescence, dry powder, set 2 (AID 624489); type: functional, cell-based; details: A-375;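 further: actives are compounds lowering A375 viability meaning general cytotoxicity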
fMet-Leu-Phe receptor = fMet-Leu-Phe receptor (Homo sapiens, UniProt P21462); assay: FPR ligands, dose response (AID 519); type: functional
Cytochrome P450 2C9 = Cytochrome P450 2C9 (Homo sapiens, UniProt P11712)
Sequence of Cytochrome P450 2C9 (P11712 whole entry): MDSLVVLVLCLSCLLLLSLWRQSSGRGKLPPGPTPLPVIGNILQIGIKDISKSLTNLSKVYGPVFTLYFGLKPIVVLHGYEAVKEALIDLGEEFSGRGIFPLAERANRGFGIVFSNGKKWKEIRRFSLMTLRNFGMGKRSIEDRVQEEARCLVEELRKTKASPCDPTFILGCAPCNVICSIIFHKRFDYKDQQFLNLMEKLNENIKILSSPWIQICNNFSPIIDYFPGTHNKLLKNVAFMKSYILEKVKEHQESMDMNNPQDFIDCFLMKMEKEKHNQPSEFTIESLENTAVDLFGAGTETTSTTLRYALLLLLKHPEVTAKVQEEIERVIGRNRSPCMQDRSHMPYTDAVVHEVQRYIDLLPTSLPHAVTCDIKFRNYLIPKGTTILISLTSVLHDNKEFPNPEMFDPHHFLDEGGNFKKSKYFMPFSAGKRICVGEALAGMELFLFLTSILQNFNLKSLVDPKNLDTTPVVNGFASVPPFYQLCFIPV

[3] = miR-122 activators in hepatoma reporter cells, dose response, cell-based, Huh7 psiCHECK-miR122, Renilla luciferase, cherry-picked (AID 651956); type: functional;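 further: huh7 hepatoma cells stably carrying a psiCHECK-2 miR-122 sensor plasmid; renilla luciferase signal reporting endogenous miR-122 activity after 48 h compound exposure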
[4] = HEK293T cytotoxicity, dose response, cytotoxicity control for miR-122 modulator project, cell-based, inhibitor set, cherry-pick, set 2 (AID 720697); type: functional
[5] = HEK293T cytotoxicity, dose response, cytotoxicity control for miR-122 modulator project, cell-based, activator set, cherry-pick (AID 720690); type: functional;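 further: HEK293T human cells scored for general mammalian cytotoxicity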
[6] = molecular target: T1, Methionyl-tRNA synthetase, putative (Trypanosoma brucei brucei, UniProt Q38C91); type: functional, Trypanosoma brucei brucei strain 927/4 GUTat10.1
T1 sequence (Q38C91 whole entry): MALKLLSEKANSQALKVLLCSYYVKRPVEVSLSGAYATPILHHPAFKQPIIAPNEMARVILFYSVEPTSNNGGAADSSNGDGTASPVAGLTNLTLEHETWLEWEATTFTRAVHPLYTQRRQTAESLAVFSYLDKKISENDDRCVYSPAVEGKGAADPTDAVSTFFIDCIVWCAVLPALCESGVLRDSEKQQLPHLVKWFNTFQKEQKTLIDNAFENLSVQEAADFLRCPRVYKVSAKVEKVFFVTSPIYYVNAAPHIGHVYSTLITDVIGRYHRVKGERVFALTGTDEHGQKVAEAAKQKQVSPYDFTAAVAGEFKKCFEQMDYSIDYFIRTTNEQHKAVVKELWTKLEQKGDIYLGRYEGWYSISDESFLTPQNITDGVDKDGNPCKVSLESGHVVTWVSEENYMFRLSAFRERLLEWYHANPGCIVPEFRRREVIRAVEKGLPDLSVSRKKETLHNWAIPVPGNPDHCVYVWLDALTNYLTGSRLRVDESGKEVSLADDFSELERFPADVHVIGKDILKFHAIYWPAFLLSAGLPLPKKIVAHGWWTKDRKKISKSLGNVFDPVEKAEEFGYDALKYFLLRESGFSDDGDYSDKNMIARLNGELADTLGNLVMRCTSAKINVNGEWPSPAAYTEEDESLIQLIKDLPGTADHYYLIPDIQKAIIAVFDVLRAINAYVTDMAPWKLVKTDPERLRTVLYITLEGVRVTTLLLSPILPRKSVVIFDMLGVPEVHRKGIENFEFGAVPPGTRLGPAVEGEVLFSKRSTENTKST

[7] = Counterscreen for inhibitors of Trypanosoma brucei methionyl tRNA synthetase (MetRS): Luminescence-based cell-based high throughput dose response assay to identify compounds that are cytotoxic to Jurkat human T lymphocyte cells.; type: functional
[8] = molecular target: T1, Methionyl-tRNA synthetase, putative; type: functional, Trypanosoma brucei brucei strain 927/4 GUTat10.1; remark: listed apart in the source
[9] = HeLa cell cytotoxicity, dose response, cytotoxicity control, 24 h, plate reader, dry powder (AID 686928); type: functional, cell-based
Beta-lactamase [10] = molecular target: T2, Beta-lactamase (Pseudomonas aeruginosa, UniProt Q79MP6); assay: IMP-1 metallo-beta-lactamase inhibitors, dose response, selectivity assay for VIM-2 inhibitor project, biochemical, epi-absorbance (AID 1920)
T2 sequence (Q79MP6 whole entry): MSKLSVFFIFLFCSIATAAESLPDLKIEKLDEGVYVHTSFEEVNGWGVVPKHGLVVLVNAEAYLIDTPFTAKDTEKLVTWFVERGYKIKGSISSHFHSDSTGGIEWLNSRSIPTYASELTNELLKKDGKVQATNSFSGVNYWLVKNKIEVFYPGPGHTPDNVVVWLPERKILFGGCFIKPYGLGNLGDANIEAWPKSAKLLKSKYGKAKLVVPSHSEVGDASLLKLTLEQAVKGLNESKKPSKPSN

[11] = molecular target: DNA dC->dU-editing enzyme APOBEC-3G (Homo sapiens, UniProt Q9HC16); assay: Dose Response confirmation of small molecule APOBEC3G DNA Deaminase Inhibitors via a fluorescence-based single-stranded DNA deaminase assay. [Related pubchem assays (depositor defined):AID493012, AID493028]; type: functional
Sequence of DNA dC->dU-editing enzyme APOBEC-3G (Q9HC16 whole entry): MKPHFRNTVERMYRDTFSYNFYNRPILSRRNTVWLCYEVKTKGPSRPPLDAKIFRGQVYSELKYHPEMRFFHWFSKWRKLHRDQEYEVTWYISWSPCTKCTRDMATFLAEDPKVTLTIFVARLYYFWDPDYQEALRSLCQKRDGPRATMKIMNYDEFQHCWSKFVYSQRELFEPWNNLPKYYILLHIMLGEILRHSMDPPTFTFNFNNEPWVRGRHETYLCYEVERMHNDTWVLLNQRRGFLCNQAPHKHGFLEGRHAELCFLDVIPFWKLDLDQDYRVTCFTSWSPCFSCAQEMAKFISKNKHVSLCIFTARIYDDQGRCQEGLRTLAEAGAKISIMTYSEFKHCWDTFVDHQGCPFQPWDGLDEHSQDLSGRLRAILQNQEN

Beta-lactamase [12] = molecular target: Beta-lactamase (Salmonella choleraesuis (strain SC-B67), UniProt Q5J463); assay: Epi-absorbance-based counterscreen for selective VIM-2 inhibitors: dose response biochemical high throughput screening assay to identify inhibitors of TEM-1 serine-beta-lactamase.
Sequence of Beta-lactamase (Salmonella choleraesuis (strain SC-B67), UniProt Q5J463) (Q5J463 whole entry): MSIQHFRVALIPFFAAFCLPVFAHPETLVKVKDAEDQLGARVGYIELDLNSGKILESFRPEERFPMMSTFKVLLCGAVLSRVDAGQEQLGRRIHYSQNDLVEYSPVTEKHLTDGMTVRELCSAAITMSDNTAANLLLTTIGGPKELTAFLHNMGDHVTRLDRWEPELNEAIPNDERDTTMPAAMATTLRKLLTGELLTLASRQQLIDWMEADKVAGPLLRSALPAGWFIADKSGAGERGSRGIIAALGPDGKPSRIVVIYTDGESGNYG

Beta-lactamase [13] = molecular target: T2, Beta-lactamase; assay: […] counterscreen for selective VIM-2 inhibitors: dose response biochemical high throughput screening assay to identify inhibitors of IMP-1 metallo-beta-lactamase.
[14] = molecular target: DNA dC->dU-editing enzyme APOBEC-3A (Homo sapiens, UniProt P31941); assay: APOBEC3A DNA deaminase inhibitors, dose response, biochemical (AID 504722); type: functional
Sequence of DNA dC->dU-editing enzyme APOBEC-3A (P31941 whole entry): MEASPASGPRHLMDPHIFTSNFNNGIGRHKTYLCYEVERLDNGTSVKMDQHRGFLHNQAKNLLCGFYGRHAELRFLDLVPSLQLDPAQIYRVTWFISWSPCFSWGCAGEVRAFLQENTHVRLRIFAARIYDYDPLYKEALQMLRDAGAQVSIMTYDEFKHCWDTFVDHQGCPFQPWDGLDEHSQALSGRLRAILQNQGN

[15] = EDANS-DABCYL fluorescence interference, concentration series, dose response, artefact control for kallikrein-7 zymogen activator project, biochemical, fluorescence intensity, triplicate (AID 720493)
Kallikrein-7 = Kallikrein-7 (Homo sapiens, UniProt P49862); assay: Fluorescence Intensity-based biochemical primary high throughput dose response assay to identify activators of kallikrein-7 (K7) zymogen.
Sequence of Kallikrein-7 (P49862 whole entry, the tested form may be a part): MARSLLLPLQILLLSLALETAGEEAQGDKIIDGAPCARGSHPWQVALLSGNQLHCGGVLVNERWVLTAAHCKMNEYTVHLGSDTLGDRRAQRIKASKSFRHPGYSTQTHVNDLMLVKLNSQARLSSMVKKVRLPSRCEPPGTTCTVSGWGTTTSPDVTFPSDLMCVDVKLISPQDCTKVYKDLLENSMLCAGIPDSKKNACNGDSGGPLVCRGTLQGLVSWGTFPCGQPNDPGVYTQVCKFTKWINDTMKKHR

[16] = molecular target: Oxysterols receptor LXR-beta (Homo sapiens, UniProt P55055); type: functional, cell-based;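 further: agonist activity at LXR measured by a cell-based luminescence readout across a dose range, run as a counterscreen for daf-12 agonists; HEK293 cells with Gal4-LXR fusion and GAL4-driven luciferase reporter; potency for activation of Gal4-LXR reporter so compounds are agonists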
[17] = ZM109 Env clade C HIV-1 fusion inhibitors, dose response, HeLa effector, CEM target cells, luciferase, cherry-pick (AID 652058); type: functional, cell-based
[18] = inhibitors of clade B AD8 Env fusion, dose response, cell-based, cherry-pick (AID 652062); type: functional;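 further: luciferase signal from cell-cell fusion driven by HIV-1 clade B AD8 Env; potency is for inhibitors of fusion seen as a drop in luminescence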
[19] = CEM21 cell cytotoxicity, dose response, cytotoxicity control, plate reader, dry powder (AID 687026); type: functional, cell-based
[20] = off-target signal loss in HeLa-CEM21 co-culture – HeLa F-luc CTL cells, cherry-picked, counter-screen for HIV-1 Env fusion inhibitor project, dose response (AID 652040); type: functional, cell-based;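 further: potency for signal decrease marking cytotoxic or nonspecific inhibition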
[21] = HIV Env cell-cell fusion inhibitors, dose response, HIV entry, plate reader, dry powder (AID 687023); type: functional, cell-based
[22] = inhibitors of HIV Env-driven cell fusion, dose response, cherry-pick (AID 652057); type: functional, cell-based
[23] = molecular target: Long-chain-fatty-acid--AMP ligase FadD28 (Mycobacterium tuberculosis, UniProt P9WQ59); assay: Fluorescence polarization aasay to screen for inhibitors that compete for the binding of FadD28 to a bisubstrate Measured in Biochemical System Using Plate Reader - 2147-01_Inhibitor_Dose_CherryPick_Activity.; type: functional, Mycobacterium tuberculosis H37Rv
Sequence of Long-chain-fatty-acid--AMP ligase FadD28 (P9WQ59 whole entry): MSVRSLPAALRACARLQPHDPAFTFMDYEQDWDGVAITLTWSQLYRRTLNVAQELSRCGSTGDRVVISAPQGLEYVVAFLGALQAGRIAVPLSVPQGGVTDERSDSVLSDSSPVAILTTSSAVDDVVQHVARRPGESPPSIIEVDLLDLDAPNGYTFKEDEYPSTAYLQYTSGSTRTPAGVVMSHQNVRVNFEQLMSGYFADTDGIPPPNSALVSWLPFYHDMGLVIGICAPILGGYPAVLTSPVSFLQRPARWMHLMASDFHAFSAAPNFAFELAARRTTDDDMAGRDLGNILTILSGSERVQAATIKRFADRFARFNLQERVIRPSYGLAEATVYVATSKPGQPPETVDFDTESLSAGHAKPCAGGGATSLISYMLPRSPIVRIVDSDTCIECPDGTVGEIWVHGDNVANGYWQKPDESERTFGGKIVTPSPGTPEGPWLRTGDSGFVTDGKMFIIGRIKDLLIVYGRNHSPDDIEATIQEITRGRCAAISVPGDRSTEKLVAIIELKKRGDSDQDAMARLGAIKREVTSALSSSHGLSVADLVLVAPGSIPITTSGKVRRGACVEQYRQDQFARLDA

[24] = T. cruzi growth inhibition in host cells, dose response, cell-based, plate reader, dry powder, set 2 (AID 652275); type: functional
[25] = inhibitors of non-replicating M. tuberculosis, dose response, luciferase, dry powder (AID 651619); type: functional; details: Mycobacterium tuberculosis
[26] = inhibitors of non-replicating M. tuberculosis, dose response, luciferase, dry powder (AID 651620); type: functional; details: Mycobacterium tuberculosis
BHK-21 = assay: BHK-21 cell toxicity, dose response, cytotoxicity control, plate reader, cherry-pick samples (AID 687030); type: functional, cell-based; details: Mesocricetus auratus
A549 = assay: A549 cell toxicity, dose response, cytotoxicity control, plate reader, cherry-pick samples (AID 687028); type: functional, cell-based; details: Homo sapiens
[27] = molecular target: C-X-C chemokine receptor type 4 (Homo sapiens, UniProt P61073); assay: SAR analysis of small molecule antagonists of the CXCR6 receptor using a CXCR4 receptor luminescent beta-arrestin counterscreen.; type: functional
[28] = molecular target: T3, C-C chemokine receptor type 6 (Homo sapiens, UniProt P51684); assay: SAR analysis of small molecule antagonists of the CXCR6 receptor using a CCR6 receptor luminescent beta-arrestin counterscreen.; type: functional
T3 sequence (P51684 whole entry): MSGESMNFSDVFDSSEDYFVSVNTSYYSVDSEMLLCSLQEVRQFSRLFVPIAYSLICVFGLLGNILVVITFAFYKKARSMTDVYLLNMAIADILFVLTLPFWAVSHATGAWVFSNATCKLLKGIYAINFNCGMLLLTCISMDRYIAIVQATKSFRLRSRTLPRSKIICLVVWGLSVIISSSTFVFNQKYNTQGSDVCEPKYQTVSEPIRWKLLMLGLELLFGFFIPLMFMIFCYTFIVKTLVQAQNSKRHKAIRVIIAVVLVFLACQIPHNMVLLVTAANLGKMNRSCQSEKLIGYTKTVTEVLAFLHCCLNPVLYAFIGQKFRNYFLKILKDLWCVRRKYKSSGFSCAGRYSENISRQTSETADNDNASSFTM

[29] = molecular target: Matrix metalloproteinase-14 (Homo sapiens, UniProt P50281); assay: Dose Response confirmation of uHTS hits for a small molecule inhibitors of MT1-MMP activation in a fluorescence assay set 1.; type: functional
[30] = molecular target: NAD-dependent protein deacylase sirtuin-5, mitochondrial (Homo sapiens, UniProt Q9NXA8); assay: SIRT5 desuccinylase inhibitors, dose response, biochemical, fluorescence imaging, cherry-pick, set 5 (AID 720591);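 further: desuccinylation of succinyl peptide AMC substrate read as fluorescence after trypsin release; potency of inhibitors that lower fluorescence and may act on trypsin instead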
[31] = HeLa cell cytotoxicity, dose response, cytotoxicity control, 24 h, plate reader, powder samples, set 3 (AID 651864); type: functional, cell-based
[32] = cytotoxicity in HeLa cells, dose response, cytotoxicity control, cell-based, 24 h, dry powder, set 2 (AID 651774); type: functional
[33] = A549 cell cytotoxicity, dose response, cytotoxicity control, plate reader, cherry-pick, antagonist series (AID 743412); type: functional, cell-based
[34] = HepG2 cell cytotoxicity, dose response, cytotoxicity control, plate reader, cherry-pick, antagonist series (AID 743416); type: functional, cell-based
Paired box protein Pax-8 = Paired box protein Pax-8 (Homo sapiens, UniProt Q06710); assay: inhibitors of PAX8-driven TPO luciferase reporter, dose response, RMG-I cells, cherry-pick (AID 687027); type: functional, cell-based;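 further: luciferase reporter driven by Pax8 target thyroperoxidase promoter measured by SteadyGlo luminescence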
Sequence of Paired box protein Pax-8 (Q06710 whole entry): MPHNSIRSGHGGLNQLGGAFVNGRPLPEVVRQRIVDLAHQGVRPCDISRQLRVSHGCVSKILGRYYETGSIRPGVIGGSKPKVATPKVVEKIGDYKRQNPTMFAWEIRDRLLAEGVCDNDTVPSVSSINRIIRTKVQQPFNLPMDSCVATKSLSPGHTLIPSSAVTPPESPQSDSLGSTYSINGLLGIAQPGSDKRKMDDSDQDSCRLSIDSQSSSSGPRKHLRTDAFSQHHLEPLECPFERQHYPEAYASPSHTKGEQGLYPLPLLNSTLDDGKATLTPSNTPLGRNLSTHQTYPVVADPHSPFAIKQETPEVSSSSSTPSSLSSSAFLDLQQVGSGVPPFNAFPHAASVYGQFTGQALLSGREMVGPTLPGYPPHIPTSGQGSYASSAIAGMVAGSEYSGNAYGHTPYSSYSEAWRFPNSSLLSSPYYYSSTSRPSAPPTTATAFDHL

[35] = MC4R antagonists, dose response, counter-screen for LGR2 antagonist project, cell-based, plate reader, cherry pick (AID 743444); type: functional;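 further: transfected HEK 293 cells stimulated with alpha-MSH peptide; potency of inhibitors of the alpha-MSH evoked signal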
[36] = LGR2 antagonists, dose response, cell-based, HEK293, CRE-luciferase reporter, cherry pick, set 2 (AID 743343); type: functional;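 further: transfected cells were stimulated with diluted bursicon conditioned medium after compound addition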
[37] = non-specific cell cytotoxicity, dose response, cytotoxicity control for PAX8 inhibitor project, plate reader, dry powder samples (AID 743021); type: functional, cell-based
[38] = HEK293 cell cytotoxicity, dose response, cytotoxicity control, plate reader, cherry-picked samples (AID 743446); type: functional, cell-based
[39] = molecular target: Broad substrate specificity ATP-binding cassette transporter ABCG2 (Homo sapiens, UniProt Q9UNQ0); assay: ABCG2 efflux pump inhibitors, dose response, Ig-MXP3 cells, flow cytometry (AID 1690); type: functional
[40] = molecular target: ATP-dependent translocase ABCB1 (Homo sapiens, UniProt P08183); assay: ABCB1 efflux pump inhibitor potency, dose response, Jurkat-DNR cells, JC-1, flow cytometry (AID 1689); type: functional
Mu-type opioid receptor = Mu-type opioid receptor (Homo sapiens, UniProt P35372); assay: Late-stage results from the probe development effort to identify antagonists of OPRK1: luminescence-based cell-based dose response OPRM1 counterscreen, Set 2.; type: functional
Sequence of Mu-type opioid receptor (P35372 whole entry): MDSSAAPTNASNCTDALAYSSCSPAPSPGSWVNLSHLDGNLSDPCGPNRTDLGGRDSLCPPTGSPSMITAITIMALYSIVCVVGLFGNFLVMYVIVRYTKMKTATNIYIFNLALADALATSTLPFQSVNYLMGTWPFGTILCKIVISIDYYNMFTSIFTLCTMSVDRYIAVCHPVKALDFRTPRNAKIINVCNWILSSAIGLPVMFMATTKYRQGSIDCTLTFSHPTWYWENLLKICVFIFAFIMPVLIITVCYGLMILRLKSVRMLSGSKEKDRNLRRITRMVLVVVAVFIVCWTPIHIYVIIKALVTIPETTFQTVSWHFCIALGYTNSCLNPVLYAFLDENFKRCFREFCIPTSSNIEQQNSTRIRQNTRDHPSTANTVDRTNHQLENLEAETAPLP

[41] = molecular target: Sphingosine 1-phosphate receptor 1 (Homo sapiens, UniProt P21453); assay: Late-stage counterscreen for antagonists of kappa opioid receptor 1 (OPRK1): fluorescence-based cell-based dose response assay to identify antagonists of Sphingosine 1-Phosphate Receptor 1 (S1P1).; type: functional
[42] = molecular target: Delta-type opioid receptor (Homo sapiens, UniProt P41143); assay: Late-stage results from the probe development effort to identify antagonists of OPRK1: fluorescence-based cell-based dose response OPRD1 counterscreen, Set 2.; type: functional
Sequence of Delta-type opioid receptor (P41143 whole entry): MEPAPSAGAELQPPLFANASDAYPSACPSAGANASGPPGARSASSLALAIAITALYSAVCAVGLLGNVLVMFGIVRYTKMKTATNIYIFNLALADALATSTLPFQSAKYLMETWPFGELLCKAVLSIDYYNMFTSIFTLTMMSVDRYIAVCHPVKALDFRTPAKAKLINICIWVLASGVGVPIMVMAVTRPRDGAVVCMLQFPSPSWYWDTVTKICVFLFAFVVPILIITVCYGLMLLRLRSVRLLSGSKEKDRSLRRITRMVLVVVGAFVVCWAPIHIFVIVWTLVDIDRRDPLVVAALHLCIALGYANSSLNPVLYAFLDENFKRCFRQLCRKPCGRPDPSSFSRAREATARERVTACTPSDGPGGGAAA

[43] = molecular target: Kappa-type opioid receptor (Homo sapiens, UniProt P41145); assay: Late-stage fluorescence-based cell-based dose response assay for antagonists of kappa opioid receptor 1 (OPRK1).; type: functional
Sequence of Kappa-type opioid receptor (P41145 whole entry): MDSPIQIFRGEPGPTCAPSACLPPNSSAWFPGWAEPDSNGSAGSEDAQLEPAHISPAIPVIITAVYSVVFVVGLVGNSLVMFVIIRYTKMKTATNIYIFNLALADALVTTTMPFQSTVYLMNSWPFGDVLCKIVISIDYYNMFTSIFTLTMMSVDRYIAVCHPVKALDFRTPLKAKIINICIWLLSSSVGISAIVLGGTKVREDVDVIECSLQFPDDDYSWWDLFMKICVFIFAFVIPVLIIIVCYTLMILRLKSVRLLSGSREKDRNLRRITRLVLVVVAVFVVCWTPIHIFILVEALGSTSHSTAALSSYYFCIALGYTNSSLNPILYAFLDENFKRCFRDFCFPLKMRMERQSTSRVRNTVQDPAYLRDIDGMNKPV

[44] = HEK293T cell cytotoxicity, dose response, cytotoxicity control for HIV Vif inhibitor project, cherry-picks (AID 652208); type: functional, cell-based

C=CCNC1=C(NS(=O)(=O)c2ccc(Br)cc2)C(=O)c2ccccc2C1=O
AC50 [1]: > 70 µM (inactive)
AC50 [2]: > 70 µM (inactive)

Cc1ccc(C2C(C(=O)c3ccc(Cl)cc3)=C(O)C(=O)N2CC2CCCO2)o1 (stereo unspecified)
Ki (fMet-Leu-Phe receptor): 11.6 µM (active)
AC50 (Cytochrome P450 2C9): 22.4 µM (inconclusive)

C[C@H](CO)N1C[C@H](C)[C@H](CN(C)Cc2ccc(C(F)(F)F)cc2)OCCCC[C@H](C)Oc2ccc(NC(=O)CCCN(C)C)cc2C1=O
AC50 [3]: 10.3 µM (active)
AC50 [4]: 17.9 µM (active)
AC50 [5]: 15.7 µM (active)

Cn1cc(S(=O)(=O)N2CCOCC2)cc1C(=O)NCc1ccc(Cl)cc1
IC50 [6]: 29.8 µM (inactive)
IC50 [7]: 83.3 µM (inactive)
IC50 [8]: 11.2 µM (inactive)

O=C(Nc1nnc(-c2ccc(Cl)cc2)o1)C1CCCCC1
AC50 [9]: > 160 µM (inactive)

C=C(C)Cn1c(-c2cccs2)n[nH]c1=S
IC50 (Beta-lactamase [10]): > 59.6 µM (inactive)
IC50 [11]: 7.53 µM (active)
IC50 (Beta-lactamase [12]): > 59.6 µM (inactive)
IC50 (Beta-lactamase [13]): > 59.6 µM (inactive)
IC50 [14]: > 100 µM (inactive)

COc1ccc(-c2coc3cc(O)c(OC)cc3c2=O)cc1 [CASTANIN]
EC50 [15]: > 7.73 µM (active)
EC50 (Kallikrein-7): 9 µM (active)

Cc1ccsc1/C=N/NC(=O)c1sccc1C
EC50 [16]: > 67.5 µM (inactive)

Cc1ccc2c(CN3CCN(S(=O)(=O)c4ccc5c(c4)OCCO5)CC3)cc(=O)oc2c1C
AC50 [17]: 0.424 µM (active)
AC50 [18]: 4.06 µM (active)
AC50 [19]: > 70 µM (inactive)
AC50 [20]: > 70 µM (inactive)
AC50 [21]: 3.95 µM (active) and 5.68 µM (active) and 3.52 µM (active)
AC50 [22]: 4.58 µM (active)

COc1ccc(OC)c(C2=NOC(C(=O)Nc3cccc(C(C)=O)c3)C2)c1 (stereo unspecified)
AC50 [23]: 34.6 µM (active)

O=C(CN1CCOCC1)N1CCCCN2[C@@H](CO)[C@H](c3ccc(-c4ccccc4)cc3)[C@@H]2C1
AC50 [24]: 2.39 µM (active)

Fc1ccc(-c2nnc(SCc3cn(Cc4ccccc4)nn3)o2)cc1
IC90 [25]: 1 µM (active)
IC90 [26]: 1 µM (active)

COc1cc(NC(=O)c2nccn2C)cc(C(=O)Nc2cccc(C(F)(F)F)c2)c1
AC50 (BHK-21): 26.2 µM (active)
AC50 (A549): 19.7 µM (active)

COc1ccc(CN2C3CCCC2CC(NC(=O)c2cc(OC)c(OC)c(OC)c2)C3)cc1 (stereo unspecified)
IC50 [27]: 57.5 µM (inactive)
IC50 [28]: > 79 µM (inactive)

Nc1ccc(NC(=O)c2ccccc2)c2c1C(=O)c1ccccc1C2=O
IC50 [29]: 19.5 µM (active)

CCCCC(=O)Nc1ccc2c(c1)nc(CCNC(=O)c1ccco1)n2C
AC50 [30]: > 30 µM (inactive)

CCn1nnnc1NCc1ccc(C(C)C)cc1
AC50 [31]: 144 µM (active)
AC50 [32]: > 70 µM (inactive)

Nc1[nH]cnc2c(C3OC(CO)C(O)C3O)cnc1-2 (stereo unspecified)
AC50 [33]: < 0.05 µM (active)
AC50 [34]: 0.422 µM (active)
AC50 (Paired box protein Pax-8): < 0.26 µM (active)
AC50 [35]: 0.539 µM (active)
AC50 [36]: 0.407 µM (active)
AC50 [37]: 19.5 µM (active)
AC50 [38]: 0.832 µM (active)

CN(C)c1ccc(P(=O)(Nc2cccc(C(F)(F)F)c2)N2CCOCC2)c(NC(=O)c2cccs2)c1 (stereo unspecified)
EC50 [39]: 1.21 µM (inactive)
EC50 [40]: 0.286 µM (active)

COc1ccccc1C1CCN(Cc2ccc3c(c2)CCC(C)(C)O3)CC1
IC50 (Mu-type opioid receptor): 7.4 µM (active)
IC50 [41]: > 50 µM (inactive)
IC50 [42]: > 50 µM (inactive)
IC50 [43]: 4.66 µM (active)

COC(=O)N1C(=O)[C@](c2ccc(Cl)cc2)(C(C)C)N1C(=O)OC
AC50 [44]: 18.7 µM (active)
